One experiment addresses PDGFRβ (Homo sapiens, UniProt P09619). The experiment in a line: Kinase inhibition functional assay. In kind it is biochemical.
Another experiment deals with T1, FLT3 (Homo sapiens, UniProt P36888).
T1 sequence (P36888 27-993): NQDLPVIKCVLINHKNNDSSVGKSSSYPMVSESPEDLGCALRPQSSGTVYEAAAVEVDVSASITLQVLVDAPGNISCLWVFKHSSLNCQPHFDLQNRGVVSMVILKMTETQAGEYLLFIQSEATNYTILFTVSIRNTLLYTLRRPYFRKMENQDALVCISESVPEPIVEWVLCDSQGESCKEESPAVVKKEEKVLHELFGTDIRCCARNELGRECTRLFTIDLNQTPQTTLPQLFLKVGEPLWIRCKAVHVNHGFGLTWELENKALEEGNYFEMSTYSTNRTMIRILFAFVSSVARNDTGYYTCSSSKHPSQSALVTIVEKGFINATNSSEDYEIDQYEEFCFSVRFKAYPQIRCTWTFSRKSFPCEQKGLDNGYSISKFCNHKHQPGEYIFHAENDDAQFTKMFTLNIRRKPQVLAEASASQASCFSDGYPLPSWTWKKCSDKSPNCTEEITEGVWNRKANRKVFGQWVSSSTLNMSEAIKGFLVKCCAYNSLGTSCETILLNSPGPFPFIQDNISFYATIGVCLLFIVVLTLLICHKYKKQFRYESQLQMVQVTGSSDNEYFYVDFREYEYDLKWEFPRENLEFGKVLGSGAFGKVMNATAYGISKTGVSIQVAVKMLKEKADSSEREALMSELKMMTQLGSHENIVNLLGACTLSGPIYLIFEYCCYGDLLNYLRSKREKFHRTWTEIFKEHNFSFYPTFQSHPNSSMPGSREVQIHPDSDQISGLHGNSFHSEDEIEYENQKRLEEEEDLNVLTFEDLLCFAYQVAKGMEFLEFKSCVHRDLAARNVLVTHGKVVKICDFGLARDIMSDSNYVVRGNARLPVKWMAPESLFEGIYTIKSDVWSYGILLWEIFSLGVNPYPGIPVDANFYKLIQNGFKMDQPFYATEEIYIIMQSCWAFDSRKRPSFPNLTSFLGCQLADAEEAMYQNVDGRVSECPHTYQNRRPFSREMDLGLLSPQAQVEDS
The experiment in a line: Kinase inhibition functional assay. In kind it is biochemical.

Here are results for two molecules from PMC3547291 (Bioorganic & medicinal chemistry letters, 2012).

Where only a bound is given, the exact number is not on record here.

PDGFRβ, sequence (P09619 33-1106): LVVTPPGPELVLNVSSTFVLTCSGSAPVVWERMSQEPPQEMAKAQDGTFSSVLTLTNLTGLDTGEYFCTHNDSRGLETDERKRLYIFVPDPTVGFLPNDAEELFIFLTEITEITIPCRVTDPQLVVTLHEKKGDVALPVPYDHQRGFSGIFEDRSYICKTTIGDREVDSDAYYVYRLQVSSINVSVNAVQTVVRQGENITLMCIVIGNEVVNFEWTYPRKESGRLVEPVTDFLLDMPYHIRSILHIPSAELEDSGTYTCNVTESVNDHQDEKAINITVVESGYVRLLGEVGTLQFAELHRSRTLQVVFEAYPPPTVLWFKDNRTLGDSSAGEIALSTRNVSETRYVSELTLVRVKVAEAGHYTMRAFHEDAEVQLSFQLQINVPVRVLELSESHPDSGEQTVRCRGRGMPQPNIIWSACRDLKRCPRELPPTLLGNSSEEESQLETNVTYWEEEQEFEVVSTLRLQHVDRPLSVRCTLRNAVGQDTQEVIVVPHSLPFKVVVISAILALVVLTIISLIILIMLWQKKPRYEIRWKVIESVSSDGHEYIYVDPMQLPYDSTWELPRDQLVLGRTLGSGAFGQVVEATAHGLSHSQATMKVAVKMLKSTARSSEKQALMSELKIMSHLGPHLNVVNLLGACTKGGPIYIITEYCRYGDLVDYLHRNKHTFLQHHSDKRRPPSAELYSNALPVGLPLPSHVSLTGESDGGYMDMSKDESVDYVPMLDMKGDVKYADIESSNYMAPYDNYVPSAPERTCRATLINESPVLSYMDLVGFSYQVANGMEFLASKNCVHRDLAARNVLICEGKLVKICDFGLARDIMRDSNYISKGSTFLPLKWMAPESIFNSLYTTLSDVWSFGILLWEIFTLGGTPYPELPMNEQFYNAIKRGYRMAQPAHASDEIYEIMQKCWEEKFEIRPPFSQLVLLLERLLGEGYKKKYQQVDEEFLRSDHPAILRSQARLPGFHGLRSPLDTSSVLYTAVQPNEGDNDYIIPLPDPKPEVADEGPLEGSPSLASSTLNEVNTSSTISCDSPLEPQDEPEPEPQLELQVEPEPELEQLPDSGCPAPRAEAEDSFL

Consider `Cc1cn(-c2cc(F)cc(NC(=O)c3ccc(C)c(Nc4nccc(-c5cccnc5)n4)c3)c2)cn1` [Compound 2b], for which the IC50 on PDGFRβ is over 50000 nM. At FLT3, `Cc1cc(NC(=O)c2ccc(C)c(Nc3nccc(-c4cccnc4)n3)c2)cc(-n2cnc(C)c2)c1` [Compound 2c] had an IC50 of 118 nM.
